Source: US9428790B2, “Simultaneous measurement of thrombin generation and clot strength in plasma and whole blood” (SYNAPSE B.V., priority 2012, dated 2016)

How the values were obtained:
Type in all cases: biochemical
[1] = tested on: fibrinolysis; experiment: Clot strength (torque, oscillation mode) in triggered whole blood with tPA; settings: 300 U/ml tPA, oscillation 10 Hz, angle 1°, inset
Description: (§1) Blood was obtained through venipuncture (1 volume tri-sodium citrate 0.13M to 9 volumes blood). Free flow or minimal suction should be employed, and vacuum containers avoided. Platelet poor plasma (PPP) was obtained by centrifugation of blood twice at 2630 g for 10 min.
(§2) Recombinant relipidated tissue factor (rTF) not containing polybrene or Ca^++ was from Dade Behring (Marburg, Germany). For each experiment, a fresh mixture of Tissue Factor (TF) and phospholipids vesicles (PL) (Avanti, Alabaster, Ala., USA) was prepared, resulting in a final concentration of 5 pM TF and 4 μM PL in Hepes buffer (20 mM, pH 7.35) containing 5 mg/l BSA (Sigma, A-7030). Recombinant tissue plasminogen activator (tPA) was obtained from Boehringer Ingelheim GmbH, Germany as actylase™. […] Upon splitting by thrombin, it releases the fluorescent rhodamine (Rho), which is measured by a 470 nm excitation and a 520 emission filter set. […] The by plasmin released fluorescent 7-Amino-4-methylcoumarin (AMC) is measured by a 365 nm excitation and a 430 nm emission filter set. […]
(§3) Using a signal substrate with a fluorescent leaving group, thrombin generation was measured via a fluorescence detector. The strength of the formed fibrin clot was monitored by an oscillating or rotating measuring system of a specially designed rheometer (Physica MCR 301, Anton Paar Germany GmbH, Ostfildern). […]

[2] = target: T1, plasmin (Homo sapiens, UniProt P00747); experiment: Plasmin generation (raw fluorescence, H-Ala-Leu-Lys-AMC) in tPA-triggered platelet-poor plasma; settings: 100 U/ml tPA, rotation 300/s, FIG. 8 upper panel
T1 construct: from tissue; host or cells: platelet-poor plasma from citrated blood
Description: as §1
as §2, with “A-7030).” for “A-7030). Recombinant tissue plasminogen activator (tPA) was obtained from Boehringer Ingelheim GmbH, Germany as actylase™.”
A total of 700 μl (in case of plasma) or 800 μl (in case of blood) sample and substrate was added on the thermostated sample holder at 37° C. of the rheometer. […] Immediately after addition of the FluCa, the viscosity (or Torque in case of oscillation of the measuring system) and fluorescence were measured every 10 seconds and every second at 470/520 nm respectively. […]

[3] = tested on: fibrin; experiment: Clot strength (viscosity) in tPA-triggered platelet-poor plasma on rotary rheometer; settings: 100 U/ml tPA, rotation 300/s, FIG. 8 lower panel
Description: as §1, §2, §3

[4] = tested on: fibrin polymerization; experiment: Clot strength (viscosity) in triggered platelet-poor plasma on rotary rheometer with Doolittle peptide; settings: 0.5 mM up to 2 mM peptide, shear rate 300/s, 5 pM TF, 4 μM PL, FIG. 6 upper panel
Description: as §1, §2, §3

[5] = tested on: thrombin generation; experiment: Thrombin generation (fluorogenic substrate, calibrated) in triggered platelet-poor plasma with Doolittle peptide; settings: 0.5 mM up to 2 mM peptide, shear rate 300/s, FIG. 6 lower panel
Description: as §1
as §2, with “A-7030).” for “A-7030). Recombinant tissue plasminogen activator (tPA) was obtained from Boehringer Ingelheim GmbH, Germany as actylase™.”
The calibrator, α2M-Thrombin complex (α2MT), was prepared in house as previously described. The concentration of α2M-Thrombin is measured by its ability to hydrolyze the chromogenic substrate S2238. […] After adding bovine antithrombin and heparin (LEO) this material was ready for use as a thrombin calibrator.
Using a signal substrate with a fluorescent leaving group, thrombin generation was measured via a fluorescence detector. […]

T1 sequence (P00747 581-810 limits assumed): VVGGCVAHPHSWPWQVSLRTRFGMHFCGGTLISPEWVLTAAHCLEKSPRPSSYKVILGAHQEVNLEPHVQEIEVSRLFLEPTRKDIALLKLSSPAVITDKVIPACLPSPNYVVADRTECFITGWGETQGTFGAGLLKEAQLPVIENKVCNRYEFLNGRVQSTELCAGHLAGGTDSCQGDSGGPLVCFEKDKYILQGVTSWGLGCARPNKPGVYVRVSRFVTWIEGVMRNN
T1 sequence (P00747 97-580 partner limits assumed): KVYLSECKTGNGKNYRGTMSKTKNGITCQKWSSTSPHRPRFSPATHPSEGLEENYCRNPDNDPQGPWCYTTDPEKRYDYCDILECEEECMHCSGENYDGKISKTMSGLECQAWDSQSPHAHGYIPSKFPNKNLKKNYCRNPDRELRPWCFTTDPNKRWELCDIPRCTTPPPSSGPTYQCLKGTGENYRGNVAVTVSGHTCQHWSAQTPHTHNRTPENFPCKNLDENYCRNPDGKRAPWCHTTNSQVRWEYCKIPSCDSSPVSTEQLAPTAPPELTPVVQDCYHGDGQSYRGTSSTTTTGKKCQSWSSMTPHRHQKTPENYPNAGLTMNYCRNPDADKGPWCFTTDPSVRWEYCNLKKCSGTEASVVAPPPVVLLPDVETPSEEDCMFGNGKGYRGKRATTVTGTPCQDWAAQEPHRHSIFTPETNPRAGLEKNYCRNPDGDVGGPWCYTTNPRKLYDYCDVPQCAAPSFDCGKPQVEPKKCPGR

Row | plasmin generation (raw fluorescence) [2] | Substance | fibrinolysis (torque) [1] | viscosity (degradation of fibrin) [3] | viscosity of the sample compared to the control sample [4] | effect on the thrombin generation [5]
1 | activation of plasmin | tPA: Recombinant tissue plasminogen activator (tPA) obtained from Boehringer Ingelheim GmbH as actylase™ | fibrinolysis could be followed | decrease in viscosity | – | –
2 | – | Gly-Pro-Arg-Pro (GPRP; printed: Gly-Pro-Arg-Pro) [Doolittle peptide] | – | – | significantly decreased the viscosity | minimal
